Data reported in patent US20230310472A1, “Stable Topical Formulations of 1(R)-4-(5-(4-Methoxy-3-Propoxphenyl)Pyridin-3-YL)-1,2-OX-Aborolan-2-OL” (Pfizer Inc., priority 2020, published 2023).

Experiments:
Type in all cases: in vitro ADME
dog hepatocytes = assay: In vitro metabolism in hepatocytes; conditions: non-radiolabeled
From the text: (§1) An assessment of the metabolism of non-radiolabeled PF-07038124 was 5 conducted in vitro using mouse, rat, dog, monkey and human hepatocytes. […] The primary routes of metabolism were hydrolysis/oxidation of the oxaborole ring to yield the diol (PF-07086920), glucuronidation of the pyridyl nitrogen, hydroxylation on the propyl group of the phenoxypropyl moiety, and demethylation of the methoxy group (shown below). All metabolites detected in mouse, rat, dog, and monkey hepatocytes were also observed in human hepatocytes.

human hepatocytes = assay: In vitro metabolism in hepatocytes; conditions: non-radiolabeled
From the text: as §1

monkey hepatocytes = assay: In vitro metabolism in hepatocytes; conditions: non-radiolabeled
From the text: as §1

mouse hepatocytes = assay: In vitro metabolism in hepatocytes; conditions: non-radiolabeled
From the text: as §1

rat hepatocytes = assay: In vitro metabolism in hepatocytes; conditions: non-radiolabeled
From the text: as §1

[1] = Stability on incubation in blood (LC-MS/MS); conditions: for concentration of PF-07038124 following incubation / concentration of PF-07086920 following incubation of PF-07038124: 1 hour at 1 μM; for chemical stability in blood: oxidation of the oxaborole ring to diol
Experimental: One of the major metabolic pathways in humans was formation of the oxaborole ring opened molecule, PF-07086920. […] Following incubation for 1 hour at 1 μM in human and rat blood, the concentration of PF-07038124 declined whereas the concentration of PF-07086920 increased in both human and rat blood as determined by liquid chromatography-tandem mass spectrometry. In addition to being a metabolite, PF-07086920 was also determined to be a degradant in the formulations comprising PF-07038124.

metabolism of PF-07038124 in hepatocytes (dog hepatocytes)	metabolism of PF-07038124 in hepatocytes (human hepatocytes)	metabolism of PF-07038124 in hepatocytes (monkey hepatocytes)	metabolism of PF-07038124 in hepatocytes (mouse hepatocytes)	metabolism of PF-07038124 in hepatocytes (rat hepatocytes)	concentration of PF-07038124 following incubation ([1]; human blood)	chemical stability in blood ([1]; human blood)	concentration of PF-07038124 following incubation ([1]; rat blood)	chemical stability in blood ([1]; rat blood)	concentration of PF-07086920 following incubation of PF-07038124 ([1]; human blood)	concentration of PF-07086920 following incubation of PF-07038124 ([1]; rat blood)	Compound
Moderate to extensive metabolism	Moderate to extensive metabolism	Moderate to extensive metabolism	Moderate to extensive metabolism	Moderate to extensive metabolism	declined	chemically unstable	declined	chemically unstable			CCCOc1cc(-c2cncc([C@@H]3COB(O)C3)c2)ccc1OC [PF-07038124, (R)-4-(5-(4-methoxy-3-propoxyphenyl)pyridin-3-yl)-1,2-oxaborolan-2-ol]
									increased	increased	CCCOc1cc(-c2cncc(C(CO)CO)c2)ccc1OC [PF-07086920, 2-(5-(4-methoxy-3-propoxyphenyl)pyridin-3-yl)propane-1,3-diol]
